Legend:
[1] = test system: CD8 T cells; experiment: TCR-CD28 co-stimulated proliferation, [3H] thymidine incorporation, CD8 T cells; format: cell-based, human; conditions: anti-CD3 150 ng/ml and anti-CD28 1 μg/ml coated, 72 h
Procedure: (§1) 96-well plates were coated with the anti-CD3 and anti-CD28 mAb at 150 ng/ml and 1 μg/ml respectively in PBS overnight at 4° C., aspirated and coated with the control protein, CG57008-15, CG57008-12 or CG57008-14 for 4 hr at 37° C. Wells were aspirated and 150 μl of purified Human CD4+, CD8+ or polarized TH2 cells from healthy blood donors, or purified CD4+ or CD8+ T cells from B6 mice at a concentration of 0.7×10^6 cells/ml were added and cultured for 72 h at 37° C. Proliferation was measured by [^3H] thymidine incorporation by pulsing cells with 0.5 μCi of [^3H] thymidine 8 hr prior to harvesting. Cytokines were measured by ELISA using cells harvested at 72 hr.

[2] = test system: CD4 T cells; experiment: TCR-CD28 co-stimulated proliferation, [3H] thymidine incorporation, CD4 T cells; format: cell-based, human; conditions: anti-CD3 150 ng/ml and anti-CD28 1 μg/ml coated, 72 h
Procedure: as §1

CG201877-02 (ECD/FC): Tim1 - Mus musculus; Mature Igkappa, ECD, Fc, V5, His
proliferation of CD8 T cells [1]: significantly inhibited
proliferation of CD4 T cells [2]: significantly inhibited

— US20050197292A1, “Compositions and methods for treating T-cell mediated pathological conditions” (priority 2004, published 2005)
